Assay results from PubChem BioAssay (NCI).
Several values for one entry are separate records, joined by “and”; a condition that tells them apart may be missing. Identical values can stand only once.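 Exposure lasted 48 hours, with cells grown in 96-well plates and compounds tested at five concentrations. Here, GI50 denotes the concentration required for 50% inhibition of growth. TGI denotes the concentration required for complete inhibition of growth.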

How the values were obtained:
Assay in all cases: NCI anticancer screen, dose series, 48 h
A549 NSCLC = tested on: A549 NSCLC
HCC-2998 colon = tested on: HCC-2998 colon
HOP-62 NSCLC = tested on: HOP-62 NSCLC
IGROV1 ovarian = tested on: IGROV1 ovarian
MALME-3M melanoma = tested on: MALME-3M melanoma
NCI-H23 lung = tested on: NCI-H23 lung
NCI-H522 lung = tested on: NCI-H522 lung
NCI/ADR-RES ovarian = tested on: NCI/ADR-RES ovarian
U251 CNS = tested on: U251 CNS
UACC-257 melanoma = tested on: UACC-257 melanoma

## COC(=O)c1ccc2c(c1)C(=O)c1c-2n(CCCN=[N+]=[N-])c(=O)c2cc(OC)c(OC)cc12
A549 NSCLC
  GI50: > 100 µM
  TGI: > 100 µM
HCC-2998 colon
  GI50: > 100 µM
  TGI: > 100 µM
HOP-62 NSCLC
  GI50: > 100 µM
  TGI: > 100 µM
IGROV1 ovarian
  GI50: > 100 µM
  TGI: > 100 µM
MALME-3M melanoma
  GI50: > 100 µM
  TGI: > 100 µM
NCI-H23 lung
  GI50: 15.6 µM
  TGI: > 100 µM
NCI-H522 lung
  GI50: > 100 µM
  TGI: > 100 µM
NCI/ADR-RES ovarian
  GI50: > 100 µM
  TGI: > 100 µM
U251 CNS
  GI50: > 100 µM
  TGI: > 100 µM
UACC-257 melanoma
  GI50: > 100 µM
  TGI: > 100 µM

## COC(=O)[C@]12CC[C@@H](C)[C@H](C)[C@@H]1C1=CC[C@@H]3[C@@]4(C)C[C@@H](O)[C@H](O)[C@@](C)(CO)C4=CC[C@@]3(C)[C@]1(C)CC2
A549 NSCLC
  GI50: 17.3 µM
  TGI: 35.4 µM
HCC-2998 colon
  GI50: 17.3 µM
  TGI: 34.8 µM
HOP-62 NSCLC
  GI50: 21.3 µM
  TGI: 39.2 µM
IGROV1 ovarian
  GI50: 22 µM
  TGI: 43.1 µM
MALME-3M melanoma
  GI50: 17.5 µM
  TGI: 31.3 µM
NCI-H23 lung
  GI50: 16.2 µM
  TGI: 33.6 µM
NCI-H522 lung
  GI50: 16.2 µM
  TGI: 33.6 µM
NCI/ADR-RES ovarian
  GI50: 16.6 µM
  TGI: 33.9 µM
U251 CNS
  GI50: 16.5 µM
  TGI: 34.1 µM
UACC-257 melanoma
  GI50: 20.1 µM
  TGI: 35.5 µM

## CCN1CCN(c2cc(C)c3cc(NC(=O)c4ccc(OC)c(OC)c4)ccc3n2)CC1
A549 NSCLC
  GI50: 11.1 µM
  TGI: > 100 µM
HCC-2998 colon
  GI50: > 57.3 µM
  TGI: > 100 µM
HOP-62 NSCLC
  GI50: > 37 µM
  TGI: > 57.7 µM
IGROV1 ovarian
  GI50: > 66.3 µM
  TGI: > 100 µM
MALME-3M melanoma
  GI50: 13.3 µM
  TGI: 31.3 µM
NCI-H23 lung
  GI50: 50.5 µM
  TGI: > 100 µM
NCI-H522 lung
  GI50: 0.485 µM
  TGI: 16.9 µM
NCI/ADR-RES ovarian
  GI50: > 49.1 µM
  TGI: > 100 µM
U251 CNS
  GI50: > 50.5 µM
  TGI: > 100 µM
UACC-257 melanoma
  GI50: > 40.4 µM
  TGI: > 58.9 µM

## Cc1nc(N)sc1N=Nc1ccccc1Br
A549 NSCLC
  TGI: > 100 µM
HCC-2998 colon
  TGI: 21.7 µM
HOP-62 NSCLC
  TGI: 78.4 µM
IGROV1 ovarian
  TGI: 64.4 µM
MALME-3M melanoma
  TGI: 61 µM
NCI-H23 lung
  TGI: 56.3 µM
NCI-H522 lung
  TGI: 30.3 µM
NCI/ADR-RES ovarian
  TGI: 72.5 µM
U251 CNS
  TGI: 52.6 µM
UACC-257 melanoma
  TGI: 55.8 µM

## CCCC(=O)Nc1cn(COC)c(C(=O)N2C[C@@H]3C[C@]34C2=CC(=O)c2[nH]cc(C)c24)n1
A549 NSCLC
  TGI: 50 µM and 30 µM
HCC-2998 colon
  GI50: 6.23 µM
  TGI: 13.1 µM and 19.1 µM
HOP-62 NSCLC
  GI50: 3.91 µM
  TGI: 50 µM and 15.2 µM
IGROV1 ovarian
  GI50: 1.27 µM
  TGI: 29.5 µM and 10.8 µM
MALME-3M melanoma
  TGI: 6.66 µM
NCI-H23 lung
  TGI: 14.7 µM and 6.4 µM
NCI-H522 lung
  TGI: 13.5 µM and 4 µM
NCI/ADR-RES ovarian
  GI50: 14.9 µM
  TGI: 20.7 µM and 28.9 µM
U251 CNS
  GI50: 4.93 µM
  TGI: 50 µM and 21.1 µM
UACC-257 melanoma
  GI50: 13.3 µM
  TGI: 23.5 µM and 27.7 µM

## CN1C(=O)c2ccccc2NC(=O)C12O[C@@H]2c1ccccc1 (stereo partly specified)
A549 NSCLC
  TGI: > 100 µM
HCC-2998 colon
  TGI: > 100 µM
HOP-62 NSCLC
  TGI: > 100 µM
IGROV1 ovarian
  TGI: > 100 µM
MALME-3M melanoma
  TGI: > 100 µM
NCI-H23 lung
  TGI: > 100 µM
NCI-H522 lung
  TGI: > 100 µM
NCI/ADR-RES ovarian
  TGI: > 100 µM
U251 CNS
  TGI: > 100 µM
UACC-257 melanoma
  TGI: > 100 µM

## NC(N)=N/N=C/c1c(Cl)cccc1Cl
A549 NSCLC
  GI50: 27.4 µM
  TGI: > 100 µM
HCC-2998 colon
  GI50: 14.8 µM
  TGI: 28.6 µM
HOP-62 NSCLC
  GI50: 30.9 µM
  TGI: > 100 µM
IGROV1 ovarian
  GI50: 31.2 µM
  TGI: > 100 µM
MALME-3M melanoma
  GI50: 16.2 µM
  TGI: 33.5 µM
NCI-H23 lung
  GI50: 36.5 µM
  TGI: > 100 µM
NCI-H522 lung
  GI50: 25.8 µM
  TGI: 77.2 µM
NCI/ADR-RES ovarian
  GI50: 28.9 µM
  TGI: > 100 µM
U251 CNS
  GI50: 16.3 µM
  TGI: 33.7 µM
UACC-257 melanoma
  GI50: 12.3 µM
  TGI: 27.3 µM

## CCC[CH2][Sn]([CH2]CCC)([O]C(=O)c1ccc(OC)c(OC)c1OC)[O][Sn]([CH2]CCC)([CH2]CCC)[O]C(=O)c1ccc(OC)c(OC)c1OC
A549 NSCLC
  GI50: 2.27 µM
  TGI: 5.42 µM
HCC-2998 colon
  GI50: 0.341 µM
  TGI: 1.5 µM
HOP-62 NSCLC
  GI50: 1.61 µM
  TGI: 2.98 µM
IGROV1 ovarian
  GI50: 0.891 µM
  TGI: 2.47 µM
MALME-3M melanoma
  GI50: 0.168 µM
  TGI: 0.757 µM
NCI-H23 lung
  GI50: 0.142 µM
  TGI: 0.535 µM
NCI-H522 lung
  GI50: < 0.0108 µM
  TGI: 0.0392 µM
NCI/ADR-RES ovarian
  GI50: 0.843 µM
  TGI: 2.14 µM
U251 CNS
  GI50: 0.274 µM
  TGI: 1.1 µM
UACC-257 melanoma
  GI50: 0.217 µM
  TGI: 0.549 µM

## Cc1c(N(C)C)ccc2c(=O)c3cccc(CC(=O)O)c3oc12
A549 NSCLC
  TGI: > 100 µM
HCC-2998 colon
  TGI: > 100 µM
HOP-62 NSCLC
  TGI: > 100 µM
IGROV1 ovarian
  TGI: > 100 µM
MALME-3M melanoma
  TGI: > 100 µM
NCI-H23 lung
  TGI: > 100 µM
NCI-H522 lung
  TGI: > 100 µM
NCI/ADR-RES ovarian
  TGI: > 100 µM
U251 CNS
  TGI: > 100 µM
UACC-257 melanoma
  TGI: > 100 µM
